Experimental data taken from the supplement of paper PMC12076712.

Tests used:
Experiment in all cases: pIC50, kinobeads binding competition
BRAF = BRAF (UniProt P15056)
Outline: (§1)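 Either living Jurkat cells (60 min at 37 °C, then lysis) or lysates (60 min at 4 °C) were treated with nine compound concentrations from a top of 30 μM, in 1:4 steps for cells and 1:5 steps for lysates. The lysates were from Jurkat cells or a 1:1:1:1 mix of HEK293, K-562, HepG2 and placenta. Kinobeads-bound proteins were digested and quantified by TMT10 LC-MS/MS. pIC50 was calculated by logistic dose-response fitting (R drc package) of fold changes relative to vehicle, in biological duplicates.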

CLK4 = CLK4 (UniProt Q9HAZ1)
CLK4, sequence (Q9HAZ1 whole entry, looked up): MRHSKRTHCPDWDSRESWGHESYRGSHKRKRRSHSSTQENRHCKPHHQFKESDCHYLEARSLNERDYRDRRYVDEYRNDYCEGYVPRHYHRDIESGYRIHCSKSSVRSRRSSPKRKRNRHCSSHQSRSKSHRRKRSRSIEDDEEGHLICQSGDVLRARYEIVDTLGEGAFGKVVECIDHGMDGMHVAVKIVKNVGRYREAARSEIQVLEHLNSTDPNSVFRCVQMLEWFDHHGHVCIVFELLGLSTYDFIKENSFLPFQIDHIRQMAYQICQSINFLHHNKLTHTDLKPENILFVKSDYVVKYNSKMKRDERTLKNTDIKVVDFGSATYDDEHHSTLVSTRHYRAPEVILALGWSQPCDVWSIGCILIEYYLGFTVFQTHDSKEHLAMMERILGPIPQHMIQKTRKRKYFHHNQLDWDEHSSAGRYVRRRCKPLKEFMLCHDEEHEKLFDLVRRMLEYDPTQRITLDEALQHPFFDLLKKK
Outline: as §1

FER = FER (UniProt P16591)
FER, sequence (P16591 whole entry, looked up): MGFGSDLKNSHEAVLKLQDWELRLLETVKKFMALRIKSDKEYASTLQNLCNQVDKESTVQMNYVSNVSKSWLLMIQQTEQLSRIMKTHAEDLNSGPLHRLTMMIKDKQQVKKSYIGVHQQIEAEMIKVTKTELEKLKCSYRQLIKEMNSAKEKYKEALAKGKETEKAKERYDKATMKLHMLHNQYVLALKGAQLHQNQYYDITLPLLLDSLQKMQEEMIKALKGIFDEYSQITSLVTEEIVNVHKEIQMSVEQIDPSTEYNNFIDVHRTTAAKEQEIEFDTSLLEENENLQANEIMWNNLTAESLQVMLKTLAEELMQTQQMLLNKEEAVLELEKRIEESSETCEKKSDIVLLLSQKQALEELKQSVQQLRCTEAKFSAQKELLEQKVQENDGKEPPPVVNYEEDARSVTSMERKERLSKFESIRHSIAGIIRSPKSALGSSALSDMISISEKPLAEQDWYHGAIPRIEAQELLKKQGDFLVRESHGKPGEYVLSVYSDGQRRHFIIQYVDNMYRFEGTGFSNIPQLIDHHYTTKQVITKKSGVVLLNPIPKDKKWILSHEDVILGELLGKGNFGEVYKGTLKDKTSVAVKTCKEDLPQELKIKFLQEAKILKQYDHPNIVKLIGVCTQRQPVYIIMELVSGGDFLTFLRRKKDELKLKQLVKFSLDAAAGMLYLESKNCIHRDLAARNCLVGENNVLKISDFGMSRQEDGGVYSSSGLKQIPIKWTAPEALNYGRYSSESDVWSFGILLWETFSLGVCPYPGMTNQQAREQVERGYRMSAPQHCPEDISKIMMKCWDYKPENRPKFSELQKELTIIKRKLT
Outline: as §1

JAK1 = JAK1 (UniProt P23458)
Outline: as §1

LATS1 = target: T1, LATS1 (UniProt O95835)
T1 sequence (whole entry): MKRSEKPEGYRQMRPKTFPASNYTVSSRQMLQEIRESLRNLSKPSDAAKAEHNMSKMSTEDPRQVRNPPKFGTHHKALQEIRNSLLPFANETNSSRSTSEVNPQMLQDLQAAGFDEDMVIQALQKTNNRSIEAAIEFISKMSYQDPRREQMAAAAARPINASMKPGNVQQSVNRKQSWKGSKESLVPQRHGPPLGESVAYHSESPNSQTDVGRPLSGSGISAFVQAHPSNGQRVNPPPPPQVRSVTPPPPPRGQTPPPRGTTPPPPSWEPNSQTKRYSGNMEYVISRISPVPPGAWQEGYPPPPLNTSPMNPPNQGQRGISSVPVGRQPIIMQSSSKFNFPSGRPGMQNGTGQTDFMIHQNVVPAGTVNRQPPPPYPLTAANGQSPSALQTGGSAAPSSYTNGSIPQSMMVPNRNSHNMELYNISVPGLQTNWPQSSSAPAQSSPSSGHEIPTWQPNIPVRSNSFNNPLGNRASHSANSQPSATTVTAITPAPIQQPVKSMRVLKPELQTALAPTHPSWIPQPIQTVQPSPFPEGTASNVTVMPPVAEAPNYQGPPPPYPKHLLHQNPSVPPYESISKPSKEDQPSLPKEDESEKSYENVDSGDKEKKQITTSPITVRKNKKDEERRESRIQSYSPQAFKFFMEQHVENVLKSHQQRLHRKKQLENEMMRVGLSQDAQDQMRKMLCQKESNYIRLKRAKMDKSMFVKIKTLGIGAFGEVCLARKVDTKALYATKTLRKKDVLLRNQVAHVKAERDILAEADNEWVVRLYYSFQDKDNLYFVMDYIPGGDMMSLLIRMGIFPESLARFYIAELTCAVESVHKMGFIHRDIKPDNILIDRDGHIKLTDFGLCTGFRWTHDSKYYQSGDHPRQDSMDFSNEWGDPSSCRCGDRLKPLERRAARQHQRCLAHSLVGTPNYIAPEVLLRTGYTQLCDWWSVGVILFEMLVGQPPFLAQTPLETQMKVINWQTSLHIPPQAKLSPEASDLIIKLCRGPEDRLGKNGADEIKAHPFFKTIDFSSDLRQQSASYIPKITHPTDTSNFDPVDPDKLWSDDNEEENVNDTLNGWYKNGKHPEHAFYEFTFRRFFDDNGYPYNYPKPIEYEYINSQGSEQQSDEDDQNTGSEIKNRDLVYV
Outline: as §1

MET = MET (UniProt P08581); conditions: cell material: Lysate mix
Outline: as §1

PKMYT1 = target: T2, PKMYT1 (UniProt Q99640)
T2 sequence (whole entry): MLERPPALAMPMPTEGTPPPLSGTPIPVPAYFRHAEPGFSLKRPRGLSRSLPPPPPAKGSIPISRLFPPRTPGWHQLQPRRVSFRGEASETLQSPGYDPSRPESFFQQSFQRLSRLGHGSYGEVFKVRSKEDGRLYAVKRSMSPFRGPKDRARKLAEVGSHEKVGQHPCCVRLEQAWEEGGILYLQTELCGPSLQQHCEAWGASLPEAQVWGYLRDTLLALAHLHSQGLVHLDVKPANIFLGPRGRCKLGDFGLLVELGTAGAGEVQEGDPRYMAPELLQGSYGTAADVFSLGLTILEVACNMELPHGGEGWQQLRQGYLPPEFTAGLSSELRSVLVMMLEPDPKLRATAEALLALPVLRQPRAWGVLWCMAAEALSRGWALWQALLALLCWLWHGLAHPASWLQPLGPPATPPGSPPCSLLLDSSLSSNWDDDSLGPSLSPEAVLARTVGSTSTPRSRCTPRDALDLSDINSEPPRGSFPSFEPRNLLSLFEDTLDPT
Outline: as §1

PRPF4B = PRPF4B (UniProt Q13523); conditions: cell material: Lysate mix
Outline: as §1

STK39 = STK39 (UniProt Q9UEW8)
Outline: as §1

UniProt O94804 = target: UniProt O94804
UniProt O94804, sequence (O94804 whole entry, looked up): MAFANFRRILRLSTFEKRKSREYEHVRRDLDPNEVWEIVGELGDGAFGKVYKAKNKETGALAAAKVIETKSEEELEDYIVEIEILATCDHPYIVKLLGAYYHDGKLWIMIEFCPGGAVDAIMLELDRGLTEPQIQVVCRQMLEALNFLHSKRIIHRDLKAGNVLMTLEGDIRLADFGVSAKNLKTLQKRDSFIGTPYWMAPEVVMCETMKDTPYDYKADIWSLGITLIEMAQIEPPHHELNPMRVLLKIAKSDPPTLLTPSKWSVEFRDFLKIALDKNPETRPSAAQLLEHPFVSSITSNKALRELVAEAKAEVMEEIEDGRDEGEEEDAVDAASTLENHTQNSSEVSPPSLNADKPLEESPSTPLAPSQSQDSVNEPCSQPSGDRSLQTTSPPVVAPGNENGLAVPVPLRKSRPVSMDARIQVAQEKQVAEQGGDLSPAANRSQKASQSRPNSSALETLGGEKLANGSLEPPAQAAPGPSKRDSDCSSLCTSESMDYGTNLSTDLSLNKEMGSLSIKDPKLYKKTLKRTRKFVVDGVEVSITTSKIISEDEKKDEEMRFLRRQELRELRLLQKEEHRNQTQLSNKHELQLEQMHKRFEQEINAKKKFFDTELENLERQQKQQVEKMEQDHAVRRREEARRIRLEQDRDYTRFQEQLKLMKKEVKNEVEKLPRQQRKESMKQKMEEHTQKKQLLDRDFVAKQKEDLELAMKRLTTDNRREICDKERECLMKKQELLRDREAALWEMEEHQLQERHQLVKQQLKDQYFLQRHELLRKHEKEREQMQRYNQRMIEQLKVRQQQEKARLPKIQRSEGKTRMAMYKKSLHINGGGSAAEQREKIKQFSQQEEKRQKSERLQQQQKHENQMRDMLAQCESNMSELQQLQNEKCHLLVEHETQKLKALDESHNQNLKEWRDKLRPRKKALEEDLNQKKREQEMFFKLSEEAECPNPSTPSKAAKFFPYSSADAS
Outline: as §1

UniProt P51812 = target: UniProt P51812
UniProt P51812, sequence (P51812 whole entry): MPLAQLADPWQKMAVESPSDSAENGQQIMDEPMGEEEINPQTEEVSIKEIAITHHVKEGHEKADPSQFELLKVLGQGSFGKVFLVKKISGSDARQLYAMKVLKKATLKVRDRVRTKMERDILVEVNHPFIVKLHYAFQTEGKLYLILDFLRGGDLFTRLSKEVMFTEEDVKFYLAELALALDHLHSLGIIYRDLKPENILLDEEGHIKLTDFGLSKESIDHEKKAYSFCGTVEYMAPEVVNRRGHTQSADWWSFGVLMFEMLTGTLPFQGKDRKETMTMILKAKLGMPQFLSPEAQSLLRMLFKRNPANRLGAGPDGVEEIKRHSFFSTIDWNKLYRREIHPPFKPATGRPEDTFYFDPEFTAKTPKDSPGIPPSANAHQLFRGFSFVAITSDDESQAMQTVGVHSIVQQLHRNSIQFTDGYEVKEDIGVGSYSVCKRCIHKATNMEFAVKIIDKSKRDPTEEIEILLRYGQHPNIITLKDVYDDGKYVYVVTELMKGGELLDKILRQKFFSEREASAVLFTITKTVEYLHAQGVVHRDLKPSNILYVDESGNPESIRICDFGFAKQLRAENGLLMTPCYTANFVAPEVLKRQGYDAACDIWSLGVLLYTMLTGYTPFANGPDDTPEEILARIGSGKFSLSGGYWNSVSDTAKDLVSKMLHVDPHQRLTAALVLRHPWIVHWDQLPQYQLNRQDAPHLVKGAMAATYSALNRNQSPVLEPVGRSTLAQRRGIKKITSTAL
Outline: as §1

UniProt Q13043 = target: T3, UniProt Q13043
T3 sequence (whole entry): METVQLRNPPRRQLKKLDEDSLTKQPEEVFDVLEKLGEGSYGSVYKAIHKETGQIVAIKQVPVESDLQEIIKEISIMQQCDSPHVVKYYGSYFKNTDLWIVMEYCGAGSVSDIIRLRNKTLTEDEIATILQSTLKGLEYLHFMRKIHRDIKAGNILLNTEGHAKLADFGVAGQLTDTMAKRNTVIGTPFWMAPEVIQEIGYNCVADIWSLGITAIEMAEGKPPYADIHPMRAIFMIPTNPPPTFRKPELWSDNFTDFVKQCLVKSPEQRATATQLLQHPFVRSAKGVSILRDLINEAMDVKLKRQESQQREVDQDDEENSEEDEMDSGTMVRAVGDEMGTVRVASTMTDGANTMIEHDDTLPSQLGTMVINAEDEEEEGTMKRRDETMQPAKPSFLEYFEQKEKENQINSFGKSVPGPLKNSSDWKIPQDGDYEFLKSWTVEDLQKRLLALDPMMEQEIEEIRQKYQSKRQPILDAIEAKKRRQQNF
Outline: as §1

UniProt Q9HCP0 = target: UniProt Q9HCP0
UniProt Q9HCP0, sequence (Q9HCP0 whole entry, looked up): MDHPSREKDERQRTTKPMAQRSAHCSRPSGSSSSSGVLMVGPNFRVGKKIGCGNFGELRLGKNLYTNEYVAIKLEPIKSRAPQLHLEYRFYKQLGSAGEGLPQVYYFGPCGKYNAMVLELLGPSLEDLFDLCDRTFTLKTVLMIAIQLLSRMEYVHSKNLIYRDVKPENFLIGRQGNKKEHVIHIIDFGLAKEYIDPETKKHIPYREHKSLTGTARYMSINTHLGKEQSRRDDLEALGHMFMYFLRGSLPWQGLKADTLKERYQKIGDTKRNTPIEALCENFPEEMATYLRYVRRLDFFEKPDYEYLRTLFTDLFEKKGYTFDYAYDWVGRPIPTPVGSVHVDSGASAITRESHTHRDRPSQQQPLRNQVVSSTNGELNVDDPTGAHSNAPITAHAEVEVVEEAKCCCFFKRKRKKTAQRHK
Outline: as §1

BRAF, sequence (P15056 whole entry): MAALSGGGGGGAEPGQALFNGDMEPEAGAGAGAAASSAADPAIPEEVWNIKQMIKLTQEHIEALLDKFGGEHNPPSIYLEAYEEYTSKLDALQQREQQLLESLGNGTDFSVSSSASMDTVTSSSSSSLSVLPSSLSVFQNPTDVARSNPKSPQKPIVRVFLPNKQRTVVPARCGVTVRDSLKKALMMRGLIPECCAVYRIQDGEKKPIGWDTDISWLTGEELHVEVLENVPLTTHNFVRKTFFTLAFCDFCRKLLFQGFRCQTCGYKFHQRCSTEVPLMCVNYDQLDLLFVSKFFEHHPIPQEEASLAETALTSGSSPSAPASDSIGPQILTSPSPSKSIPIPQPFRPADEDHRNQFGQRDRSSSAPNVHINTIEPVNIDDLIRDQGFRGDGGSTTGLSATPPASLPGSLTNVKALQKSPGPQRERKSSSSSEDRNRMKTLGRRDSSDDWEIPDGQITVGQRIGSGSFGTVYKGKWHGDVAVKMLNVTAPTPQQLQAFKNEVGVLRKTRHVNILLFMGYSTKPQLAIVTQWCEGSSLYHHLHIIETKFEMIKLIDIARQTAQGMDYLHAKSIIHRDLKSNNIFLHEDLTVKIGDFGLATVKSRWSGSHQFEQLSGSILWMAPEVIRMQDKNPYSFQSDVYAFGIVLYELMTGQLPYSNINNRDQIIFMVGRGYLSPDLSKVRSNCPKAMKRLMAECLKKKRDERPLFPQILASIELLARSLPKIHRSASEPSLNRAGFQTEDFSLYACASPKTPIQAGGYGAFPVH

Row | SMILES | pIC50 (BRAF; cell material: Lysate mix) | pIC50 (CLK4; cell material: Lysate mix) | pIC50 (FER; cell material: Lysate mix) | pIC50 (JAK1; cell material: Lysate mix) | pIC50 (LATS1; cell material: Lysate mix) | pIC50 (MET) | pIC50 (PKMYT1; cell material: Lysate mix) | pIC50 (PRPF4B) | pIC50 (UniProt O94804; cell material: Lysate mix) | pIC50 (UniProt P51812; cell material: Lysate mix) | pIC50 (UniProt Q13043; cell material: Lysate mix) | pIC50 (UniProt Q9HCP0; cell material: Lysate mix) | pIC50 (STK39; cell material: Lysate mix) | pIC50 (BRAF; cell material: Jurkat cells) | pIC50 (BRAF; cell material: Jurkat lysate) | pIC50 (CLK4; cell material: Jurkat lysate) | pIC50 (FER; cell material: Jurkat cells) | pIC50 (FER; cell material: Jurkat lysate) | pIC50 (JAK1; cell material: Jurkat cells) | pIC50 (JAK1; cell material: Jurkat lysate) | pIC50 (LATS1; cell material: Jurkat cells) | pIC50 (LATS1; cell material: Jurkat lysate) | pIC50 (PKMYT1; cell material: Jurkat lysate) | pIC50 (STK39; cell material: Jurkat cells) | pIC50 (STK39; cell material: Jurkat lysate) | pIC50 (UniProt O94804; cell material: Jurkat cells) | pIC50 (UniProt O94804; cell material: Jurkat lysate) | pIC50 (UniProt P51812; cell material: Jurkat cells) | pIC50 (UniProt P51812; cell material: Jurkat lysate) | pIC50 (UniProt Q13043; cell material: Jurkat cells) | pIC50 (UniProt Q13043; cell material: Jurkat lysate) | pIC50 (UniProt Q9HCP0; cell material: Jurkat lysate) | pIC50 (CLK4; cell material: Jurkat cells) | pIC50 (PKMYT1; cell material: Jurkat cells) | pIC50 (UniProt Q9HCP0; cell material: Jurkat cells)
1 | O=C(NCCNC(=O)c1cc(Nc2cc(C3CC3)[nH]n2)nc(N2CCN(Cc3ccc(S(=O)(=O)F)cc3)CC2)n1)OC1CC/C=C/CCC1 (configuration not stated) | < 4.52 | < 4.52 | < 4.52 | < 4.52 | < 4.52 | < 4.52 | < 4.52 | < 4.52 | < 4.52 | < 4.52 | 4.99 | < 4.52 | – | < 4.52 | < 4.52 | < 4.52 | 5.6 | < 4.52 | < 4.52 | < 4.52 | 5.78 | < 4.52 | < 4.52 | 5.62 | < 4.52 | < 4.52 | < 4.52 | 5.86 | < 4.52 | 5.98 | 4.72 | < 4.52 | – | – | –
2 | Cc1cc(Nc2cc(C(=O)NCCNC(=O)OC3CC/C=C/CCC3)nc(N3CCN(Cc4ccc(S(=O)(=O)F)cc4)CC3)n2)n[nH]1 (configuration not stated) | < 4.52 | < 4.52 | < 4.52 | < 4.52 | < 4.52 | < 4.52 | < 4.52 | < 4.52 | < 4.52 | < 4.52 | 4.74 | < 4.52 | < 4.52 | – | – | – | – | – | – | – | – | – | – | – | – | – | – | – | – | – | – | – | – | – | –
3 | C#CCNC(=O)c1cc(Nc2cc(C3CC3)[nH]n2)nc(N2CCN(Cc3ccc(S(=O)(=O)F)cc3)CC2)n1 | < 4.52 | 5.2 | 5.92 | < 4.52 | 5.56 | – | < 4.52 | < 4.52 | < 4.52 | 5.44 | 6.8 | – | 5.92 | 5.36 | < 4.52 | 4.85 | 6.2 | 5.44 | 5.18 | < 4.52 | 6.2 | 4.7 | < 4.52 | 6.04 | 5.28 | 5.04 | < 4.52 | 5.96 | < 4.52 | 6.35 | 5.89 | < 4.52 | 6.1 | 5.67 | 5.12
4 | C#CCNC(=O)c1cc(Nc2cc(C)[nH]n2)nc(N2CCN(Cc3ccc(S(=O)(=O)F)cc3)CC2)n1 | < 4.52 | – | 4.78 | < 4.52 | 4.65 | < 4.52 | < 4.52 | – | < 4.52 | 5.11 | 5.98 | < 4.52 | 5.73 | – | – | – | – | – | – | – | – | – | – | – | – | – | – | – | – | – | – | – | – | – | –

Now from value to molecule, other results behind:

Row | pIC50 (BRAF; cell material: Lysate mix) | pIC50 (CLK4; cell material: Lysate mix) | pIC50 (FER; cell material: Lysate mix) | pIC50 (JAK1; cell material: Lysate mix) | pIC50 (LATS1; cell material: Lysate mix) | pIC50 (MET) | pIC50 (PKMYT1; cell material: Lysate mix) | pIC50 (PRPF4B) | pIC50 (UniProt O94804; cell material: Lysate mix) | pIC50 (UniProt P51812; cell material: Lysate mix) | pIC50 (UniProt Q13043; cell material: Lysate mix) | pIC50 (UniProt Q9HCP0; cell material: Lysate mix) | pIC50 (STK39; cell material: Lysate mix) | SMILES | pIC50 (BRAF; cell material: Jurkat cells) | pIC50 (BRAF; cell material: Jurkat lysate) | pIC50 (CLK4; cell material: Jurkat lysate) | pIC50 (FER; cell material: Jurkat cells) | pIC50 (FER; cell material: Jurkat lysate) | pIC50 (JAK1; cell material: Jurkat cells) | pIC50 (JAK1; cell material: Jurkat lysate) | pIC50 (LATS1; cell material: Jurkat cells) | pIC50 (LATS1; cell material: Jurkat lysate) | pIC50 (PKMYT1; cell material: Jurkat lysate) | pIC50 (STK39; cell material: Jurkat cells) | pIC50 (STK39; cell material: Jurkat lysate) | pIC50 (UniProt O94804; cell material: Jurkat cells) | pIC50 (UniProt O94804; cell material: Jurkat lysate) | pIC50 (UniProt P51812; cell material: Jurkat cells) | pIC50 (UniProt P51812; cell material: Jurkat lysate) | pIC50 (UniProt Q13043; cell material: Jurkat cells) | pIC50 (UniProt Q13043; cell material: Jurkat lysate) | pIC50 (UniProt Q9HCP0; cell material: Jurkat lysate) | pIC50 (CLK4; cell material: Jurkat cells) | pIC50 (PKMYT1; cell material: Jurkat cells) | pIC50 (UniProt Q9HCP0; cell material: Jurkat cells)
5 | < 4.52 | 5.05 | 5.62 | < 4.52 | 5.3 | 4.92 | < 4.52 | 5.12 | < 4.52 | 5.28 | 6.06 | – | 5.65 | CCNC(=O)c1cc(Nc2cc(C3CC3)[nH]n2)nc(N2CCN(Cc3ccc(S(=O)(=O)F)cc3)CC2)n1 | – | – | – | – | – | – | – | – | – | – | – | – | – | – | – | – | – | – | – | – | – | –
6 | < 4.52 | < 4.52 | 4.72 | < 4.52 | < 4.52 | < 4.52 | < 4.52 | – | < 4.52 | 4.87 | 5.8 | < 4.52 | 4.66 | CCNC(=O)c1cc(Nc2cc(C)[nH]n2)nc(N2CCN(Cc3ccc(S(=O)(=O)F)cc3)CC2)n1 | – | – | – | – | – | – | – | – | – | – | – | – | – | – | – | – | – | – | – | – | – | –
